What was measured:
[1] = molecular target: T1, 5-hydroxytryptamine receptor 1A (Mus musculus, UniProt Q64264); experiment: Inhibitory activity against serotonin 5-hydroxytryptamine 1A receptor from mice.
T1 sequence (Q64264 whole entry): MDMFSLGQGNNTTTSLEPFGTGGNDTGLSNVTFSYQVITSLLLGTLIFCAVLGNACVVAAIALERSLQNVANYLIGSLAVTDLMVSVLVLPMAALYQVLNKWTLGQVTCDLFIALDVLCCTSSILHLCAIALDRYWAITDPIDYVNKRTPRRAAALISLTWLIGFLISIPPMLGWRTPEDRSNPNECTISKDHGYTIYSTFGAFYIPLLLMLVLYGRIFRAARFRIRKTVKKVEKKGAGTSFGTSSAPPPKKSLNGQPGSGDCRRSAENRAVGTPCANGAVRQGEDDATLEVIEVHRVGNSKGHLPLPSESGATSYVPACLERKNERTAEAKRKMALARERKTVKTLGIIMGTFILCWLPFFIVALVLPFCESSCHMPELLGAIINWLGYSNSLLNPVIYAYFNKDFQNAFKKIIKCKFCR

[2] = molecular target: Serotonin 2 (5-HT2) receptor (Mus musculus, UniProt Q02152+P34968+P35363); experiment: Inhibitory activity against serotonin 5-hydroxytryptamine 2 receptor from mice.; format: protein assay
Mus musculus [3] = experiment: Compound was tested for antagonist activity against apomorphine-induced mouse climbing (po). using in vivo method; format: functional
D(2) dopamine receptor [4] = molecular target: T2, D(2) dopamine receptor (Mus musculus, UniProt P61168); experiment: Inhibition of mouse Dopamine receptor D2
Mus musculus [5] = experiment: Compound was tested for antagonist activity against apomorphine-induced mouse climbing (ip). using in vivo method; format: functional
Mus musculus [6] = experiment: Compound was tested for antagonist activity against apomorphine-induced mouse climbing (ip) using in vivo method; format: functional
D(2) dopamine receptor [7] = molecular target: T2, D(2) dopamine receptor; experiment: Inhibitory activity against Dopamine receptor D2 from mice
Mus musculus [8] = experiment: Compound was tested for antagonist activity against apomorphine-induced mouse climbing (po) using in vivo method; format: functional
Mus musculus [9] = species on record: Mus musculus; experiment: Compound was tested for induction of catalepsy in mouse; format: functional
Mus musculus [10] = experiment: Compound was tested for antagonist activity against apomorphine-induced mouse stereotypy (po) using in vivo method; format: functional
[11] = Ratio of ED50 for induction of catalepsy to ED50 for antagonism of apomorphine-induced climbing.; format: functional
[12] = Ratio of ED50 for antagonism of apomorphine induced stereotypy to ED50 for antagonism of apomorphine-induced climbing.; format: functional
Mus musculus [13] = experiment: Compound was tested for antagonist activity against apomorphine-induced mouse climbing(per orally - po). using in vivo method; format: functional
Mus musculus [14] = experiment: Compound was tested for antagonist activity against apomorphine-induced mouse stereotypy(per orally - po). using in vivo method; format: functional
Mus musculus [15] = species on record: Mus musculus; experiment: Compound was tested for induction of catalepsy in mouse.; format: functional
Mus musculus [16] = experiment: Compound was tested for antagonist activity against apomorphine-induced mouse climbing(intraperitoneally - ip). using in vivo method; format: functional

T2 sequence (P61168 whole entry): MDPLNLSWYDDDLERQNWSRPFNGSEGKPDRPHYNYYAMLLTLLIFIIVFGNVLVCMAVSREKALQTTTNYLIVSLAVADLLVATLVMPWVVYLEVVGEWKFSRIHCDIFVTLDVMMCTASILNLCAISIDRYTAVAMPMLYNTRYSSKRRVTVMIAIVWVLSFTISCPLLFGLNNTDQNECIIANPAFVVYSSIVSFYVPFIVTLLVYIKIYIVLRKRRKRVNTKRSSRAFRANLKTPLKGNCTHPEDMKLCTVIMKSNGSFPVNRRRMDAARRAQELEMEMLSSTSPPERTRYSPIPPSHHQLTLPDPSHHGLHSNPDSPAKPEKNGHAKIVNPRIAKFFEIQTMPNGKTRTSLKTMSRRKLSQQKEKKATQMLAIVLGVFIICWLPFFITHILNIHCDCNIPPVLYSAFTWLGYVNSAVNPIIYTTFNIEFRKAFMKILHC

IC50 [1] [nM] | IC50 [2] [nM] | IC50 (D(2) dopamine receptor [4]) [nM] | IC50 (D(2) dopamine receptor [7]) [nM] | Structure (SMILES) | ED50 (Mus musculus [3]) [mg/kg] | ED50 (Mus musculus [5]) [mg/kg] | other results
7 | 1.5 | – | – | Nc1cnccc1C(=O)NCCCCN1CCN(c2nsc3ccccc23)CC1 | – | – | –
4.9 | 2.9 | 47 | – | O=C(NCCCCN1CCN(c2nsc3ccccc23)CC1)c1cccnc1 | 15.5 | 5.2 | –
3.3 | 1.5 | 7.8 | – | Nc1ncccc1C(=O)NCCCCN1CCN(c2nsc3ccccc23)CC1 | 17.1 | 6.4 | –
6.6 | 2.3 | – | 25 | O=C(NCCCCN1CCN(c2nsc3ccccc23)CC1)c1ccncc1 | – | – | ED50 (Mus musculus [6]): 4.6 mg/kg; ED50 (Mus musculus [8]): 34 mg/kg
2 | 2.3 | – | 11 | Nc1sccc1C(=O)NCCCCN1CCN(c2nsc3ccccc23)CC1 | > 25 | 4.8 | –
3.6 | 0.35 | 2.2 | – | O=C(NCCCCN1CCN(c2nsc3ccccc23)CC1)c1[nH]nc2ccccc12 | 31.8 | < 25 | –
3.5 | 2.5 | 6 | – | Nc1cscc1C(=O)NCCCCN1CCN(c2nsc3ccccc23)CC1 | 12.6 | 1.7 | –
4.3 | 3.4 | 34 | – | O=C(NCCCCN1CCN(c2nsc3ccccc23)CC1)c1cccc2c1NCC2 | 18.6 | 2.6 | –
1.3 | 1.3 | 9.6 | – | Nc1ccsc1C(=O)NCCCCN1CCN(c2nsc3ccccc23)CC1 | 9.7 | 0.9 | ED50 (Mus musculus [9]): 69.3 mg/kg; ED50 (Mus musculus [10]): 57.9 mg/kg; Ratio [11]: 7; Ratio [12]: 6
4.2 | 0.29 | – | 7.6 | O=C(NCCCCN1CCN(c2nsc3ccccc23)CC1)c1cccc2[nH]cnc12 | – | > 25 | –
4.3 | 2.4 | – | 14 | O=C(NCCCCN1CCN(c2nsc3ccccc23)CC1)c1cccc2cccnc12 | 54.4 | < 25 | –
1.9 | 2.4 | 28 | – | O=C(NCCCCN1CCN(c2nsc3ccccc23)CC1)c1cccc2c1NCCC2 | – | < 25 | –
5.8 | 1.3 | – | 14 | O=C(NCCCCN1CCN(c2nsc3ccccc23)CC1)c1c[nH]c2ccccc12 | – | > 25 | –
2.7 | 1.2 | 28 | – | O=C(NCCCCN1CCN(c2nsc3ccccc23)CC1)c1cccc2cc[nH]c12 | – | – | –
2.8 | 1.5 | 24 | – | O=C(NCCCCN1CCN(c2nsc3ccccc23)CC1)c1ccccn1 | – | – | ED50 (Mus musculus [13]): 16.6 mg/kg; ED50 (Mus musculus [16]): < 25 mg/kg
5.1 | 3.1 | – | 4.7 | Nc1ccncc1C(=O)NCCCCN1CCN(c2nsc3ccccc23)CC1 | – | > 25 | –
5.8 | 0.85 | 5.8 | – | Nc1c(C(=O)NCCCCN2CCN(c3nsc4ccccc34)CC2)sc2ccccc12 | 51.6 | 2.2 | –
3.8 | 8.3 | – | – | Nc1cccnc1C(=O)NCCCCN1CCN(c2nsc3ccccc23)CC1 | – | – | –

Structure (SMILES) | IC50 [1] [nM] | IC50 [2] [nM] | IC50 (D(2) dopamine receptor [4]) [nM] | IC50 (D(2) dopamine receptor [7]) [nM] | ED50 (Mus musculus [3]) [mg/kg] | ED50 (Mus musculus [5]) [mg/kg] | other results
Cc1nc2n(c(=O)c1CCN1CCC(c3noc4cc(F)ccc34)CC1)CCCC2 [RISPERIDONE] | 430 | – | 23 | – | – | – | ED50 (Mus musculus [13]): 0.9 mg/kg; ED50 (Mus musculus [14]): 3.2 mg/kg; ED50 (Mus musculus [15]): 1.4 mg/kg; ED50 (Mus musculus [16]): 0.3 mg/kg

— ChEMBL document CHEMBL1129407, “Synthesis and evaluation of heterocyclic carboxamides as potential antipsychotic agents” (J Med Chem, 1996)
